Where a name gives a salt, the structure may show the parent alone.
Assays:
5 kbp DNA = assay: Atomic force microscopy (AFM, tapping mode) of DNA incubated with compound; settings: 5 kbp DNA incubated with compound
Text: The DNA-bguan interaction was confirmed with UV absorption spectra. The absorption maximum and the shape of the absorbance curve of DNA changed appreciably in the presence of 1 equivalent bguan, indicating a distinct change of its structure in buffer solution. In addition, when a 5 kbp DNA was examined under the atomic force microscope (AFM) in the tapping mode, nematoid (long warm-like) formations of up to 1 μm were observed. […] This actually proves that DNA compacts not in big aggregates but in nanoparticles of size suitable to cross a cell membrane.

[1] = test system: ultrapure calf thymus DNA 13 kb; assay: DNA compaction: electrophoresis in agarose gel with ethidium bromide as stain; assay type: binding; settings: control substances, wells B-H and b (10 λ to 1 λ diluted 1:10)
HeLa cells = assay: Cell penetration of FITC-labeled compounds by fluorescence microscopy; assay type: cell-based, human; settings: 100 or 200 μM, 1 h incubation at 37° C.

NCCNCC1OC2OC3C(CNCCN)OC(OC4C(CNCCN)OC(OC5C(CNCCN)OC(OC6C(CNCCN)OC(OC7C(CNCCN)OC(OC8C(CNCCN)OC(OC1C(O)C2O)C(O)C8O)C(O)C7O)C(O)C6O)C(O)C5O)C(O)C4O)C(O)C3O (stereo not drawn) [bpen, Heptakis(6-deoxy-6-aminoethylamino)-β-cyclodextrin]
elongated (nematoid) DNA forms under AFM (5 kbp DNA): complete absence of the elongated forms
diameter of round DNA nanoparticles (5 kbp DNA; AFM): ~40 nm

N=C(N)N [guanidine hydrochloride]
interaction with DNA under the electrophoresis conditions [1]: do not display any kind of interaction with DNA

OC[C@H]1O[C@@H]2O[C@H]3[C@H](O)[C@@H](O)[C@@H](O[C@H]4[C@H](O)[C@@H](O)[C@@H](O[C@H]5[C@H](O)[C@@H](O)[C@@H](O[C@H]6[C@H](O)[C@@H](O)[C@@H](O[C@H]7[C@H](O)[C@@H](O)[C@@H](O[C@H]8[C@H](O)[C@@H](O)[C@@H](O[C@H]1[C@H](O)[C@H]2O)O[C@@H]8CO)O[C@@H]7CO)O[C@@H]6CO)O[C@@H]5CO)O[C@@H]4CO)O[C@@H]3CO [β-cyclodextrin]
interaction with DNA under the electrophoresis conditions [1]: do not display any kind of interaction with DNA

fluorescein isothiocyanate [treated FITC]
fluorescence inside the cytoplasm (HeLa cells): did not show any fluorescence

Source: US7834174B2, “Per-6-guanidino-, alkylamino-cyclodextrins, methods of their synthesis and their use for the compaction of DNA and intercellular delivery” (priority 2004, dated 2010)
